Laboratory results as given in patent US11597752B2, “Peptides and combination of peptides and scaffolds thereof for use in immunotherapy against colorectal carcinoma (CRC) and other cancers” (priority 2015, dated 2023).

Columns and labels:
[1] = tested on: CD8+ T-cells of healthy HLA-A*02 donors; experiment: In vitro immunogenicity: T-cell priming with aAPCs loaded with peptide/MHC and anti-CD28, multimer staining; assay type: cell-based, human; conditions: for donors: percentage of positive donors; for donors / wells: in vitro immunogenicity, Table 10A; for wells: percentage of positive wells; for Wells positive [%]: HLA-A*02 restricted peptides, among evaluable wells, Table 10B
Excerpt: In order to obtain information regarding the immunogenicity of the TUMAPs of the present invention, the inventors performed investigations using an in vitro T-cell priming assay based on repeated stimulations of CD8+ T-cells with artificial antigen presenting cells (aAPCs) loaded with peptide/MHC complexes and anti-CD28 antibody.
In order to perform in vitro stimulations by artificial antigen presenting cells loaded with peptide-MHC complex (pMHC) and anti-CD28 antibody, the inventors first isolated CD8+ T-cells from fresh HLA-A*02 leukapheresis products via positive selection using CD8 microbeads (Miltenyi Biotec, Bergisch-Gladbach, Germany) of healthy donors obtained from the University clinics Mannheim, Germany, after informed consent.
PBMCs and isolated CD8+ lymphocytes were incubated in T-cell medium (TCM) until use consisting of RPMI-Glutamax (Invitrogen, Karlsruhe, Germany) supplemented with 10% heat inactivated human AB serum (PAN-Biotech, Aidenbach, Germany), 100 U/ml Penicillin/100 μg/ml Streptomycin (Cambrex, Cologne, Germany), 1 mM sodium pyruvate (CC Pro, Oberdorla, Germany), 20 μg/ml Gentamycin (Cambrex). 2.5 ng/ml IL-7 (PromoCell, Heidelberg, Germany) and 10 U/ml IL-2 (Novartis Pharma, Nürnberg, Germany) were also added to the TCM at this step.
Generation of pMHC/anti-CD28 coated beads, T-cell stimulations and readout was performed in a highly defined in vitro system using four different pMHC molecules per stimulation condition and 8 different pMHC molecules per readout condition.
The purified co-stimulatory mouse IgG2a anti human CD28 Ab 9.3 (Jung et al., 1987) was chemically biotinylated using Sulfo-N-hydroxysuccinimidobiotin as recommended by the manufacturer (Perbio, Bonn, Germany). Beads used were 5.6 μm diameter streptavidin coated polystyrene particles (Bangs Laboratories, Illinois, USA).
800.000 beads/200 μl were coated in 96-well plates in the presence of 4×12.5 ng different biotin-pMHC, washed and 600 ng biotin anti-CD28 were added subsequently in a volume of 200 μl. Stimulations were initiated in 96-well plates by co-incubating 1×10^6 CD8+ T-cells with 2×10^6 washed coated beads in 200 μl TCM supplemented with 5 ng/ml IL-12 (PromoCell) for 3 days at 37° C. Half of the medium was then exchanged by fresh TCM supplemented with 80 U/ml IL-2 and incubating was continued for 4 days at 37° C. This stimulation cycle was performed for a total of three times. For the pMHC multimer readout using 8 different pMHC molecules per condition, a two-dimensional combinatorial coding approach was used as previously described (Andersen et al., 2012) with minor modifications encompassing coupling to 5 different fluorochromes. Finally, multimeric analyses were performed by staining the cells with Live/dead near IR dye (Invitrogen, Karlsruhe, Germany), CD8-FITC antibody clone SK1 (BD, Heidelberg, Germany) and fluorescent pMHC multimers. For analysis, a BD LSRII SORP cytometer equipped with appropriate lasers and filters was used. Peptide specific cells were calculated as percentage of total CD8+ cells. Evaluation of multimeric analysis was done using the FlowJo software (Tree Star, Oregon, USA). In vitro priming of specific multimer+CD8+ lymphocytes was detected by comparing to negative control stimulations.

[2] = target: HLA-A*02:01 (Homo sapiens, UniProt P04439, D140Y/D185E/D98H/E176V/E277Q/G131W/G231S/I119V/I121R/I166T/I218V/L300P/L318F/N151K/N90K/P208A/P217A/Q86G/Q94H/R138H/R169H/T345S); experiment: MHC binding assay (UV-ligand exchange, beta2m ELISA, peptide exchange yield); conditions: binding to HLA-A*02:01, β2m ELISA
Method in brief: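 Peptide–MHC complexes formed by UV-ligand exchange, cleaving a UV-sensitive peptide so the test peptide can bind. Exchange yield measured by ELISA: complexes captured on streptavidin-coated wells, diluted 100-fold, detected with HRP anti-β2m (1 h, 37 °C) and TMB at 450 nm, against refolded HLA-A*02:01/MLA-001 standards (15-500 ng/ml).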

| Peptide exchange (MHC class I binding score, peptide exchange yield) [2] | Substance | donors [1] | wells [1] | Wells positive [%] [1] |
| --- | --- | --- | --- | --- |
| “++” (≥20% = ++) | 38 (SLAPTPVSA; listed as Homo sapiens) [compound 38] | – | – | “+” (<20% = +) |
| “++++” (≥75% = ++++) | 42 (SILDDSFKL; listed as Homo sapiens) [compound 42] | – | – | “+” (<20% = +) |
| “+++” (≥50 = +++) | 132 (ALLNAILHSA; listed as Homo sapiens) [compound 132] | – | – | “+” (<20% = +) |
| “+++” (≥50 = +++) | 150 (RLADLEALKV; listed as Homo sapiens) [compound 150] | – | – | “++” (20%-49% = ++) |
| “++” (≥20% = ++) | 123 (KTLERSYLL; listed as Homo sapiens) [compound 123] | – | – | “+” (<20% = +) |
| “+++” (≥50 = +++) | 142 (SLVQRVETI; listed as Homo sapiens) [compound 142] | – | – | “+” (<20% = +) |
| “++” (≥20% = ++) | 133 (RTFEKIEEV; listed as Homo sapiens) [compound 133] | – | – | “+” (<20% = +) |
| “+++” (≥50 = +++) | 59 (LLTDNVVKL; listed as Homo sapiens) [compound 59] | – | – | “+” (<20% = +) |
| “++” (≥20% = ++) | 64 (KTLGKLWRL; listed as Homo sapiens) [compound 64] | – | – | “++++” (>=70% = ++++) |
| “++” (≥20% = ++) | 47 (KLYERCEVV; listed as Homo sapiens) [compound 47] | – | – | “+” (<20% = +) |
| “+++” (≥50 = +++) | 124 (RVLPPSALQSV; listed as Homo sapiens) [compound 124] | – | – | “+” (<20% = +) |
| “+++” (≥50 = +++) | 37 (GLFAGLGGAGA; listed as Homo sapiens) [compound 37] | – | – | “+” (<20% = +) |
| “++++” (≥75% = ++++) | 141 (AVIEHLERL; listed as Homo sapiens) [compound 141] | – | – | “+” (<20% = +) |
| “+++” (≥50 = +++) | 127 (RLAELTVDEFLA; listed as Homo sapiens) [compound 127] | – | – | “+” (<20% = +) |

Further lines, the substance ahead of its results:

| Substance | Peptide exchange (MHC class I binding score, peptide exchange yield) [2] | donors [1] | wells [1] | Wells positive [%] [1] |
| --- | --- | --- | --- | --- |
| 219 (FLDEKGRCV; listed as Homo sapiens) [compound 219] | – | +++ (50%-69% = +++) | ++ (20%-49% = ++) | – |
| 18 (FLSSLKGGLL; listed as Homo sapiens) [compound 18] | “+++” (≥50 = +++) | – | – | “+” (<20% = +) |
| 11 (YLFEKTFNM; listed as Homo sapiens) [compound 11] | “+++” (≥50 = +++) | – | – | “+” (<20% = +) |
| 7 (YLTRHLAVL; listed as Homo sapiens) [compound 7] | “++” (≥20% = ++) | – | – | “+” (<20% = +) |
| 1 (ALIKQLFEA; listed as Homo sapiens) [compound 1] | “+++” (≥50 = +++) | – | – | “+” (<20% = +) |
| 21 (VLIDHRWVL; listed as Homo sapiens) [compound 21] | “+++” (≥50 = +++) | – | – | “+” (<20% = +) |
| 10 (RMYNKIFAI; listed as Homo sapiens) [compound 10] | “+++” (≥50 = +++) | – | – | “++++” (>=70% = ++++) |
| 220 (KMDPVAYRV; listed as Homo sapiens) [compound 220] | – | ++++ (>=70% = ++++) | +++ (50%-69% = +++) | – |
| 12 (ALVQGILERV; listed as Homo sapiens) [compound 12] | “+++” (≥50 = +++) | – | – | “++++” (>=70% = ++++) |
| 2 (ALLPRYFFL; listed as Homo sapiens) [compound 2] | “++” (≥20% = ++) | – | – | “++++” (>=70% = ++++) |
| 9 (ILDDHLSRV; listed as Homo sapiens) [compound 9] | “++” (≥20% = ++) | – | – | “+” (<20% = +) |
